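In this assay, cells in 96-well plates receive the compound at five concentrations for 48 hours. Endpoints are linearly interpolated between the surrounding concentrations. GI50 is the concentration that inhibits growth by half.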 Calls of active or inactive are those of the source. Rule as the data show it: active = GI50 up to about 1.1 µM and inactive = higher.
What was measured:
Test in all cases: growth of human tumour cells (NCI), 48 h
[1] = tested on: A498
[2] = tested on: ACHN
[3] = tested on: CAKI-1
[4] = tested on: EKVX
[5] = tested on: HCT-15
[6] = tested on: HOP-92
[7] = tested on: IGROV-1
[8] = tested on: K562
[9] = tested on: LOX IMVI
[10] = tested on: Malme-3M
[11] = tested on: NCI-H460
[12] = tested on: OVCAR-8
[13] = tested on: SF-539
[14] = tested on: SNB-19
[15] = tested on: SK-OV-3
[16] = tested on: UO-31

Compound | GI50 [1] | GI50 [2] | GI50 [3] | GI50 [4] | GI50 [5] [µM] | GI50 [6] | GI50 [7] | GI50 [8] | GI50 [9] | GI50 [10] | GI50 [11] | GI50 [12] | GI50 [13] | GI50 [14] | GI50 [15] | GI50 [16]
C=C(C)CC(C(=O)O)c1ccc(C)cc1 (stereo unspecified) | > 100 µM (inactive) | > 100 µM (inactive) | > 100 µM (inactive) | > 100 µM (inactive) | > 100 | > 100 µM (inactive) | > 100 µM (inactive) | > 100 µM (inactive) | > 100 µM (inactive) | > 100 µM (inactive) | > 100 µM (inactive) | > 100 µM (inactive) | > 100 µM (inactive) | > 100 µM (inactive) | – | –
NC(=O)/N=C1\NC(Cc2ccccc2)C(=O)N1Cc1ccccc1 (stereo unspecified) | – | 80.4 µM (inactive) | – | > 100 µM (inactive) | > 100 | – | > 100 µM (inactive) | > 100 µM (inactive) | > 100 µM (inactive) | – | > 100 µM (inactive) | > 100 µM (inactive) | > 100 µM (inactive) | > 100 µM (inactive) | > 100 µM (inactive) | > 100 µM (inactive)
Sc1nnc(-c2ccccc2)n1/N=C\c1ccc(-c2ccc(Cl)cc2)o1 | – | > 100 µM (inactive) | – | – | – | > 100 µM (inactive) | > 100 µM (inactive) | > 100 µM (inactive) | > 100 µM (inactive) | – | > 100 µM (inactive) | > 100 µM (inactive) | > 100 µM (inactive) | > 100 µM (inactive) | > 100 µM (inactive) | > 100 µM (inactive)
O=C(c1ccccc1)c1nnc(C(=O)c2ccccc2)nn1 | – | > 344 µM (inactive) | > 344 µM (inactive) | > 344 µM (inactive) | > 344 | 166 µM (inactive) | > 344 µM (inactive) | 119 µM (inactive) | 282 µM (inactive) | > 344 µM (inactive) | > 344 µM (inactive) | > 344 µM (inactive) | > 344 µM (inactive) | > 344 µM (inactive) | 278 µM (inactive) | > 344 µM (inactive)
CN(C)CC1CCCC/C1=N/OC(=O)c1ccc(Cl)c(Cl)c1 (stereo unspecified) | > 100 µM (inactive) | > 100 µM (inactive) | > 100 µM (inactive) | > 100 µM (inactive) | > 100 | 66.5 µM (inactive) | > 100 µM (inactive) | > 100 µM (inactive) | > 100 µM (inactive) | > 100 µM (inactive) | > 100 µM (inactive) | > 100 µM (inactive) | > 100 µM (inactive) | – | > 100 µM (inactive) | 70.6 µM (inactive)
CCOc1cccc2cccnc12 | – | > 100 µM (inactive) | – | > 100 µM (inactive) | – | > 100 µM (inactive) | > 100 µM (inactive) | > 100 µM (inactive) | > 100 µM (inactive) | > 100 µM (inactive) | > 100 µM (inactive) | > 100 µM (inactive) | > 100 µM (inactive) | > 100 µM (inactive) | > 100 µM (inactive) | > 100 µM (inactive)
CC(=O)ON(C(C)=O)C1C(COC(c2ccccc2)(c2ccccc2)c2ccccc2)OC2OC3(CCCC3)OC21 (stereo unspecified) | 25.9 µM (inactive) | 7.66 µM (inactive) | > 100 µM (inactive) | 16.9 µM (inactive) | 4.6 | 2.42 µM (inactive) | > 100 µM (inactive) | 4.27 µM (inactive) | 8.18 µM (inactive) | > 89.7 µM (inactive) | 6.75 µM (inactive) | 5.13 µM (inactive) | > 100 µM (inactive) | 5.38 µM (inactive) | 5.53 µM (inactive) | 5.36 µM (inactive)
CN(C)CN(C)c1nc(N(C)C)nc(N(C)C)n1 | > 100 µM (inactive) | > 100 µM (inactive) | > 100 µM (inactive) | > 100 µM (inactive) | > 100 | > 100 µM (inactive) | > 100 µM (inactive) | > 100 µM (inactive) | > 100 µM (inactive) | > 100 µM (inactive) | > 100 µM (inactive) | > 100 µM (inactive) | > 100 µM (inactive) | > 100 µM (inactive) | > 100 µM (inactive) | > 100 µM (inactive)
O=Cc1cc2sc(C=O)cc2s1 | 17.7 µM (inactive) | – | 45.3 µM (inactive) | > 100 µM (inactive) | > 100 | > 100 µM (inactive) | > 100 µM (inactive) | > 100 µM (inactive) | > 100 µM (inactive) | > 100 µM (inactive) | > 100 µM (inactive) | > 100 µM (inactive) | > 100 µM (inactive) | > 100 µM (inactive) | > 100 µM (inactive) | > 100 µM (inactive)
COc1ccc(/C(=C/n2ccnc2)C(O)c2ccc(OC)c(OC)c2)cc1OC (stereo unspecified) | 68.9 µM (inactive) | – | – | – | > 100 | 30.6 µM (inactive) | > 100 µM (inactive) | 37.2 µM (inactive) | > 100 µM (inactive) | – | 71.6 µM (inactive) | > 100 µM (inactive) | 78 µM (inactive) | > 100 µM (inactive) | > 100 µM (inactive) | > 100 µM (inactive)
CC1=NC(C(C)C)C(=O)O1 (stereo unspecified) | > 100 µM (inactive) | > 100 µM (inactive) | > 100 µM (inactive) | > 100 µM (inactive) | 34.4 | > 100 µM (inactive) | > 100 µM (inactive) | 61.1 µM (inactive) | – | > 100 µM (inactive) | > 100 µM (inactive) | > 100 µM (inactive) | > 100 µM (inactive) | > 100 µM (inactive) | > 100 µM (inactive) | > 100 µM (inactive)
O=C(O)C(CS)Nc1c2ccccc2[n+]([O-])c2ccccc12 (stereo unspecified) | > 100 µM (inactive) | > 100 µM (inactive) | > 100 µM (inactive) | 80.4 µM (inactive) | > 100 | – | > 100 µM (inactive) | 78.9 µM (inactive) | > 100 µM (inactive) | > 100 µM (inactive) | > 100 µM (inactive) | > 100 µM (inactive) | – | > 100 µM (inactive) | > 100 µM (inactive) | 49.8 µM (inactive)
Cc1ccc2ccc(-c3ccccc3)c3c2c1C(=O)c1ccccc1C3=O | 74 µM (inactive) | 58.5 µM (inactive) | – | > 100 µM (inactive) | – | 26.1 µM (inactive) | > 100 µM (inactive) | > 100 µM (inactive) | > 100 µM (inactive) | > 100 µM (inactive) | – | 72.4 µM (inactive) | 54.3 µM (inactive) | 64.1 µM (inactive) | 41.7 µM (inactive) | > 100 µM (inactive)
CSC1=NC=CCN1C | > 100 µM (inactive) | > 100 µM (inactive) | > 100 µM (inactive) | > 100 µM (inactive) | > 100 | – | > 100 µM (inactive) | > 100 µM (inactive) | > 100 µM (inactive) | > 100 µM (inactive) | > 100 µM (inactive) | > 100 µM (inactive) | – | > 100 µM (inactive) | > 100 µM (inactive) | > 100 µM (inactive)
CN(C)CC(=O)N1CCc2c([nH]c3ccccc23)C1c1cccnc1 (stereo unspecified) | > 100 µM (inactive) | > 100 µM (inactive) | > 100 µM (inactive) | > 100 µM (inactive) | > 100 | 26.9 µM (inactive) | > 100 µM (inactive) | > 100 µM (inactive) | > 100 µM (inactive) | – | > 100 µM (inactive) | > 100 µM (inactive) | > 100 µM (inactive) | > 100 µM (inactive) | > 100 µM (inactive) | 22.5 µM (inactive)
CCCCCCCCC(=O)CCCCCCCCC(=O)O | 23.9 µM (inactive) | 25.3 µM (inactive) | 34.5 µM (inactive) | 28.4 µM (inactive) | – | 18.9 µM (inactive) | 18.7 µM (inactive) | 18.9 µM (inactive) | 14.8 µM (inactive) | 31.3 µM (inactive) | 21.3 µM (inactive) | 17.3 µM (inactive) | 19.7 µM (inactive) | 61.1 µM (inactive) | > 100 µM (inactive) | 33.3 µM (inactive)
COC1CCCc2c(OC(C)=O)ccc(OC(C)=O)c21 (stereo unspecified) | – | > 100 µM (inactive) | > 100 µM (inactive) | – | > 100 | 19.6 µM (inactive) | > 100 µM (inactive) | > 100 µM (inactive) | > 100 µM (inactive) | > 100 µM (inactive) | – | – | – | > 100 µM (inactive) | > 100 µM (inactive) | > 100 µM (inactive)
O=S(O)CCCCSSCc1ccccc1CSSCCCCS(=O)O | 40.7 µM (inactive) | 18.7 µM (inactive) | 25.8 µM (inactive) | 22.2 µM (inactive) | 19.1 | 21.9 µM (inactive) | 49.4 µM (inactive) | 16.6 µM (inactive) | 10.5 µM (inactive) | 8.91 µM (inactive) | 51.9 µM (inactive) | 17.1 µM (inactive) | 15.1 µM (inactive) | 56.2 µM (inactive) | > 100 µM (inactive) | 11.1 µM (inactive)
C=C[C@@]1(C)CCC2(O)C(CCC3C2(C)CCC[C@@]3(C)COC(=O)CC(=O)OC)C1 (stereo partly specified) | – | 40.1 µM (inactive) | > 100 µM (inactive) | – | 18.4 | – | 26.5 µM (inactive) | 22.4 µM (inactive) | 16.5 µM (inactive) | 17.7 µM (inactive) | 34.3 µM (inactive) | 23.1 µM (inactive) | 19.6 µM (inactive) | 31.6 µM (inactive) | > 100 µM (inactive) | 22.6 µM (inactive)
COc1ccc(C2Oc3cc(OC)c(O)c(C)c3[C@H]2C)cc1 (stereo partly specified) | 79.4 µM (inactive) | 54.2 µM (inactive) | > 100 µM (inactive) | 26.6 µM (inactive) | 58.9 | > 100 µM (inactive) | > 100 µM (inactive) | 61.2 µM (inactive) | 40.5 µM (inactive) | > 100 µM (inactive) | 38.2 µM (inactive) | 70 µM (inactive) | > 100 µM (inactive) | 26.9 µM (inactive) | > 100 µM (inactive) | 17.1 µM (inactive)
